Source: patent publication KR20230169706A, “베타-카리오필렌을 포함하는 존속성 세균 억제용 조성물” (국민대학교산학협력단, priority 2022, dated 2023)
Entries after “also recorded” stand apart in the source; their conditions may differ.

Test system: persister cells of Staphylococcus aureus ATCC 6538 [황색포도상구균(Staphylococcus aureus ATCC 6538), 존속성 세균(persister cell)]
Assay: Persister cell inhibition by beta-caryophyllene co-treated with antibiotics at 10x MIC (CFU count)
Type: cell-based

## C=C1CC/C=C(\C)CC[C@@H]2[C@@H]1CC2(C)C [베타-카리오필렌, β-caryophyllene]
beta-caryophyllene 1 mM or more, each antibiotic (oxacillin, tobramycin, ciprofloxacin) at 10x MIC, 24 h
  amount of persister cells: 상당량 감소
beta-caryophyllene 2 mM or more, all antibiotics (oxacillin, tobramycin, ciprofloxacin) at 10x MIC, 24 h, about 80% or more
  inhibition of persister cells: ≥ 80%
beta-caryophyllene 1 to 10 mM
  amount of persister cells: 크게 저하
beta-caryophyllene 2 to 10 mM, various antibiotics
  inhibitory effect on persister cells: ≥ 80%
beta-caryophyllene together with antibiotic at 10x MIC, 24 h, no beta-caryophyllene concentration stated
  amount of persister cells: 존속성 세균의 양이 감소
ciprofloxacin, weight ratio beta-caryophyllene:antibiotic about 10:1 to 100:1
  inhibition of persister cells: ≥ 80%
oxacillin, weight ratio beta-caryophyllene:antibiotic about 100:1 to 800:1
  inhibition of persister cells: ≥ 80%
Persister cells not killed by oxacillin, tobramycin or ciprofloxacin, no beta-caryophyllene concentration stated
  inhibition of persister cells (in words): 상당량 억제; also recorded: 효과적으로 억제; also recorded: 우수한 억제 활성
tobramycin, weight ratio beta-caryophyllene:antibiotic about 5:1 to 30:1
  inhibition of persister cells: ≥ 80%
